Test results: patent publication US20070287726A1, “5-Substituted 1H-Pyrrolo [3,2-B] Pyridines” (Altana Pharma AG, priority 2004, published 2007)

Columns and labels:
[1] = test system: pentagastrin-stimulated acid secretion of the perfused rat stomach; test: Secretion-inhibiting action on the perfused rat stomach; format: in vivo; conditions: anesthetized CD rat
Description: In Table A which follows, the influence of the compounds of the formula 1 according to the invention on the pentagastrin-stimulated acid secretion of the perfused rat stomach after intraduodenal/intravenous administration in vivo is shown.
The abdomen of anesthetized rats (CD rat, female, 200-250 g; 1.5 g/kg i.m. urethane) was opened after tracheotomy by a median upper abdominal incision and a PVC catheter was fixed transorally in the esophagus and another via the pylorus such that the ends of the tubes just projected into the gastric lumen. The catheter leading from the pylorus led outward into the right abdominal wall through a side opening.
After thorough rinsing (about 50-100 ml), warm (37° C.) physiological NaCl solution was continuously passed through the stomach (0.5 ml/min, pH 6.8-6.9; Braun-Unita I). The pH (pH meter 632, glass electrode EA 147; φ=5 mm, Metrohm) and, by titration with a freshly prepared 0.01N NaOH solution to pH 7 (Dosimat 665 Metrohm), the secreted HCl were determined in the effluent in each case collected at an interval of 15 minutes.
The gastric secretion was stimulated by continuous infusion of 1 μg/kg (=1.65 ml/h) of i.v. pentagastrin (left femoral vein) about 30 min after the end of the operation (i.e. after determination of 2 preliminary fractions). The substances to be tested were administered intraduodenally (substance 7 intravenously) in a 2.5 ml/kg liquid volume 60 min after the start of the continuous pentagastrin infusion.
The body temperature of the animals was kept at a constant 37.8-38° C. by infrared irradiation and heat pads (automatic, stepless control by means of a rectal temperature sensor).

melting point	Structure (SMILES)	Inhibition of acid secretion (%) ([1]; dose 1 μmol/kg i.d.)	also measured
296 °C	CCc1cccc(C)c1CNc1cc(Cl)nc2cc(C)[nH]c12 [Example 1, (5-Chloro-2-methyl-1H-pyrrolo[3,2-b]pyridin-7-yl)-(2-ethyl-6-methyl-benzyl)-amine]		
274 to 275 °C	CCOC(=O)c1cc(NCc2c(C)cccc2CC)c2[nH]c(C)cc2n1 [Example 2, Ethyl[7-(2-ethyl-6-methyl-benzylamino)-2-methyl-1H-pyrrolo[3,2-b]pyridine-5-carboxylate]]		
	CCc1cccc(C)c1CNc1cc(C(=O)N(C)C)nc2c(Br)c(C)[nH]c12 [Example 5, 3-Bromo-7-(2-ethyl-6-methyl-benzylamino)-2-methyl-1H-pyrrolo[3,2-b]pyridine-5-carboxylic acid dimethylamide]	>30%	
	CCc1cccc(C)c1CNc1cc(C(=O)N(C)C)nc2c(CO)c(C)[nH]c12 [Example 6, 7-(2-Ethyl-6-methyl-benzylamino)-3-hydroxymethyl-2-methyl-1H-pyrrolo[3,2-b]pyridine-5-carboxylic acid dimethylamide]	>30%	
	CCc1cccc(C)c1CNc1cc(C(=O)N(C)C)nc2c(C)c(C)[nH]c12 [Example 7, 7-(2-Ethyl-6-methyl-benzylamino)-2,3-dimethyl-1H-pyrrolo[3,2-b]pyridine-5-carboxylic acid dimethylamide]		Inhibition of acid secretion (%) ([1]; dose 2 μmol/kg i.v.): >80%
254 °C	CCOC(=O)c1cc(NCc2c(C)cccc2C)c2[nH]c(C)cc2n1 [Example 9, Ethyl[7-(2,6-dimethyl-benzylamino)-2-methyl-1H-pyrrolo[3,2-b]pyridine-5-carboxylate]]		
	Cc1cccc(C)c1CNc1cc(C(=O)N(C)C)nc2c(Br)c(C)[nH]c12 [Example 12, 3-Bromo-7-(2,6-dimethyl-benzylamino)-2-methyl-1H-pyrrolo[3,2-b]pyridine-5-carboxylic acid dimethylamide]		Inhibition of acid secretion (%) ([1]; dose 3 μmol/kg i.d.): >60%
	Cc1cccc(C)c1CNc1cc(C(=O)N(C)C)nc2c(C)c(C)[nH]c12 [Example 14, 7-(2,6-Dimethyl-benzylamino)-2,3-dimethyl-1H-pyrrolo[3,2-b]pyridine-5-carboxylic acid dimethylamide]	>50%	
256 to 259 °C	CCOC(=O)c1cc(NCc2c(C)cccc2C)c2[nH]c(C)c(CO)c2n1 [Example 19, Ethyl[7-(2,6-dimethyl-benzylamino)-3-hydroxymethyl-2-methyl-1H-pyrrolo[3,2-b]pyridine-5-carboxylate]]		
